“And” between values parts separate entries of the source, which are not always exact repeats. Equal values may be shown once. Inconclusive results and toxic doses are left out.
System: L1210 leukemia ip in BDF1 mice, survival T/C
Assay: NCI In Vivo Anticancer Drug Screen. Data for tumor model L1210 Leukemia (intraperitoneal) in B6D2F1 (BDF1) mice
Details: endpoint: mean survival time, higher = longer survival
In short: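 Antitumor effect is assessed in tumor-bearing animals. Survival in the compound arm is compared with a vehicle-dosed control arm and expressed as their quotient.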

[1] = dose: 100.0 mg/kg/injection, schedule: Q01DX009 (ip), vehicle: saline with Tween-80
[2] = dose: 200.0 mg/kg/injection, schedule: Q01DX009 (ip), vehicle: saline with Tween-80
[3] = dose: 400.0 mg/kg/injection, schedule: Q01DX009 (ip), vehicle: saline with Tween-80
[4] = dose: 100.0 mg/kg/injection, schedule: Q04DX003 (ip), vehicle: saline with Tween-80
[5] = dose: 200.0 mg/kg/injection, schedule: Q04DX003 (ip), vehicle: saline with Tween-80
[6] = dose: 400.0 mg/kg/injection, schedule: Q04DX003 (ip), vehicle: saline with Tween-80
[7] = dose: 100.0 mg/kg/injection, schedule: Q04DX003 (ip), vehicle: Klucel (hydroxypropylcellulose) (HPC)
[8] = dose: 200.0 mg/kg/injection, schedule: Q04DX003 (ip), vehicle: Klucel (hydroxypropylcellulose) (HPC)
[9] = dose: 400.0 mg/kg/injection, schedule: Q04DX003 (ip), vehicle: Klucel (hydroxypropylcellulose) (HPC)
[10] = dose: 25.0 mg/kg/injection, schedule: Q01DX009 (ip), vehicle: saline with Tween-80
[11] = dose: 50.0 mg/kg/injection, schedule: Q01DX009 (ip), vehicle: saline with Tween-80
[12] = dose: 100.0 mg/kg/injection, schedule: Q04DX002 (ip), vehicle: saline with Tween-80
[13] = dose: 200.0 mg/kg/injection, schedule: Q04DX002 (ip), vehicle: saline with Tween-80
[14] = dose: 400.0 mg/kg/injection, schedule: Q04DX002 (ip), vehicle: saline with Tween-80
[15] = dose: 25.0 mg/kg/injection, schedule: Q01DX001 (ip), vehicle: other
[16] = dose: 25.0 mg/kg/injection, schedule: Q04DX003 (ip), vehicle: saline with Tween-80
[17] = dose: 50.0 mg/kg/injection, schedule: Q01DX001 (ip), vehicle: other
[18] = dose: 100.0 mg/kg/injection, schedule: Q01DX001 (ip), vehicle: other
[19] = dose: 50.0 mg/kg/injection, schedule: Q01DX001 (ip), vehicle: saline
[20] = dose: 100.0 mg/kg/injection, schedule: Q01DX001 (ip), vehicle: saline
[21] = dose: 200.0 mg/kg/injection, schedule: Q01DX001 (ip), vehicle: saline
[22] = dose: 400.0 mg/kg/injection, schedule: Q01DX001 (ip), vehicle: saline

CN=NC(C)C
T/C (dose: 100.0 mg/kg/injection, schedule: Q01DX001 (ip), vehicle: saline with Tween-80): 97 % of control
T/C (dose: 200.0 mg/kg/injection, schedule: Q01DX001 (ip), vehicle: saline with Tween-80): 107 % of control
T/C (dose: 400.0 mg/kg/injection, schedule: Q01DX001 (ip), vehicle: saline with Tween-80): 112 % of control

CC1CCCC(C)N1C1=NCCO1 (stereo unspecified)
T/C (dose: 5.0 mg/kg/injection, schedule: Q01DX009 (ip), vehicle: saline with Tween-80): 95 % of control
T/C (dose: 10.0 mg/kg/injection, schedule: Q01DX009 (ip), vehicle: saline with Tween-80): 97 % of control
T/C (dose: 20.0 mg/kg/injection, schedule: Q01DX009 (ip), vehicle: saline with Tween-80): 95 % of control

COc1ccc(Cl)cc1NC(=O)Oc1ccc(Br)cc1Br
T/C [1]: 94 % of control
T/C [2]: 104 % of control
T/C [3]: 99 % of control

O=C1c2ccccc2S(=O)(=O)N1CC(O)COc1ccc(Cl)cc1 (stereo unspecified)
T/C [1]: 93 % of control
T/C [2]: 102 % of control
T/C [3]: 101 % of control

Nc1nc(N)nc(COc2ccccc2Cl)n1
T/C (dose: 100.0 mg/kg/injection, schedule: Q04DX002 (ip), vehicle: Klucel (hydroxypropylcellulose) (HPC)): 119 % of control
T/C (dose: 200.0 mg/kg/injection, schedule: Q04DX002 (ip), vehicle: Klucel (hydroxypropylcellulose) (HPC)): 90 % of control

CCCN(CCC)c1ccc(N=Nc2cc(Cl)ccc2Cl)cc1
T/C [4]: 91 % of control
T/C [5]: 93 % of control
T/C [6]: 91 % of control

O=c1c2ncn(C3OC(CO)C(O)C3O)c2nc2nc[nH]n12 (stereo unspecified)
T/C (dose: 100.0 mg/kg/injection, schedule: Q01DX005 (ip), vehicle: saline): 93 % of control
T/C (dose: 200.0 mg/kg/injection, schedule: Q01DX005 (ip), vehicle: saline): 98 % of control

S=C(Nc1ccccc1)Nc1ccc2ccccc2c1
T/C [7]: 100 % of control
T/C [8]: 94 % of control
T/C [9]: 110 % of control

CC(C)(C)OC(=O)NN=C1CCC(C(C)(C)C)CC1 (stereo unspecified)
T/C (dose: 100.0 mg/kg/injection, schedule: Q04DX003 (ip), vehicle: acetone): 98 % of control
T/C (dose: 200.0 mg/kg/injection, schedule: Q04DX003 (ip), vehicle: acetone): 96 % of control
T/C (dose: 400.0 mg/kg/injection, schedule: Q04DX003 (ip), vehicle: acetone): 93 % of control

CCCCCCCCCCCCSCO
T/C [10]: 118 % of control
T/C [11]: 105 % of control
T/C [1]: 101 % of control and 91 % of control
T/C [4]: 105 % of control
T/C [2]: 90 % of control
T/C [5]: 96 % of control

CCCCCC[CH2][Ge][CH2]CCCCCC
T/C [12]: 95 % of control
T/C [13]: 92 % of control
T/C [14]: 103 % of control

Nc1ncc(C(=O)O)c(N)n1
T/C (dose: 12.5 mg/kg/injection, schedule: Q01DX001 (ip), vehicle: other): 101 % of control
T/C (dose: 12.5 mg/kg/injection, schedule: Q01DX009 (ip), vehicle: saline with Tween-80): 110 % of control
T/C (dose: 12.5 mg/kg/injection, schedule: Q04DX003 (ip), vehicle: saline with Tween-80): 101 % of control
T/C [15]: 97 % of control
T/C [10]: 107 % of control
T/C [16]: 104 % of control
T/C [17]: 101 % of control
T/C [11]: 102 % of control
T/C (dose: 50.0 mg/kg/injection, schedule: Q04DX003 (ip), vehicle: saline with Tween-80): 108 % of control
T/C [18]: 103 % of control

O=C(NCCCl)Nc1ccccn1
T/C [7]: 90 % of control
T/C [8]: 94 % of control
T/C [9]: 86 % of control

CCC1C(=O)OCc2c1cc(C(=O)OC)n(C)c2=O (stereo unspecified)
T/C [15]: 111 % of control
T/C [17]: 108 % of control
T/C [18]: 93 % of control
T/C (dose: 200.0 mg/kg/injection, schedule: Q01DX001 (ip), vehicle: other): 93 % of control

CCCCCCCC(=O)N1C(=O)CCC1C(=O)NCCCCC(=O)OC (stereo unspecified)
T/C [12]: 103 % of control
T/C [13]: 116 % of control
T/C [14]: 90 % of control

CC1=NN(c2ccc(S(=O)(=O)O)cc2)C(=O)/C1=C/C(C#N)C#N
T/C [19]: 105 % of control
T/C [20]: 98 % of control
T/C [7]: 92 % of control
T/C [21]: 108 % of control
T/C [8]: 105 % of control
T/C [22]: 108 % of control
T/C [9]: 94 % of control

Cc1cc(C)[c]([Hg][Cl])c(C)c1
T/C (dose: 6.0 mg/kg/injection, schedule: Q01DX009 (ip), vehicle: saline with Tween-80): 100 % of control
T/C (dose: 6.0 mg/kg/injection, schedule: Q04DX003 (ip), vehicle: saline with Tween-80): 94 % of control
T/C (dose: 12.0 mg/kg/injection, schedule: Q01DX009 (ip), vehicle: saline with Tween-80): 87 % of control
T/C (dose: 12.0 mg/kg/injection, schedule: Q04DX003 (ip), vehicle: saline with Tween-80): 103 % of control
T/C [10]: 90 % of control
T/C [16]: 92 % of control

NC(N)=N/N=C(/CC(=O)c1ccccc1)c1ccccc1
T/C (dose: 15.0 mg/kg/injection, schedule: Q01DX Z (ip), vehicle: carboxymethylcellulose (CMC)): 103 % of control
T/C (dose: 30.0 mg/kg/injection, schedule: Q01DX Z (ip), vehicle: carboxymethylcellulose (CMC)): 107 % of control
T/C (dose: 30.0 mg/kg/injection, schedule: Q01DX Z (oral), vehicle: carboxymethylcellulose (CMC)): 98 % of control
T/C (dose: 60.0 mg/kg/injection, schedule: Q01DX Z (ip), vehicle: carboxymethylcellulose (CMC)): 101 % of control
T/C (dose: 60.0 mg/kg/injection, schedule: Q01DX Z (oral), vehicle: carboxymethylcellulose (CMC)): 96 % of control
T/C (dose: 120.0 mg/kg/injection, schedule: Q01DX Z (oral), vehicle: carboxymethylcellulose (CMC)): 98 % of control
T/C (dose: 240.0 mg/kg/injection, schedule: Q01DX Z (oral), vehicle: carboxymethylcellulose (CMC)): 93 % of control and 100 % of control
T/C (dose: 480.0 mg/kg/injection, schedule: Q01DX Z (oral), vehicle: carboxymethylcellulose (CMC)): 100 % of control

CCOC(=O)c1[nH]cnc1/N=N/N(C)CCO
T/C (dose: 50.0 mg/kg/injection, schedule: Q01DX009 (ip), vehicle: Klucel (hydroxypropylcellulose) (HPC)): 122 % of control
T/C (dose: 90.0 mg/kg/injection, schedule: Q01DX009 (ip), vehicle: Klucel (hydroxypropylcellulose) (HPC)): 116 % of control
T/C (dose: 100.0 mg/kg/injection, schedule: Q01DX001 (ip), vehicle: carboxymethylcellulose (CMC)): 115 % of control
T/C (dose: 100.0 mg/kg/injection, schedule: Q01DX009 (ip), vehicle: Klucel (hydroxypropylcellulose) (HPC)): 117 % of control
T/C [7]: 109 % of control and 115 % of control
T/C (dose: 175.0 mg/kg/injection, schedule: Q01DX009 (ip), vehicle: saline): 152 % of control
T/C (dose: 200.0 mg/kg/injection, schedule: Q01DX001 (ip), vehicle: carboxymethylcellulose (CMC)): 102 % of control
T/C [8]: 108 % of control and 121 % of control
T/C (dose: 400.0 mg/kg/injection, schedule: Q01DX001 (ip), vehicle: carboxymethylcellulose (CMC)): 107 % of control
T/C (dose: 400.0 mg/kg/injection, schedule: Q01DX009 (ip), vehicle: Klucel (hydroxypropylcellulose) (HPC)): 150 % of control and 154 % of control
T/C [9]: 124 % of control
T/C (dose: 600.0 mg/kg/injection, schedule: Q01DX009 (ip), vehicle: saline): 154 % of control

O=C(CCCC(=O)NNC(=O)Nc1ccc(Cl)cc1)NNC(=O)Nc1ccc(Cl)cc1
T/C [19]: 93 % of control
T/C [20]: 96 % of control
T/C [21]: 100 % of control
T/C [22]: 100 % of control

Cc1ccccc1C1SCCCS1
T/C [4]: 101 % of control
T/C [5]: 96 % of control
T/C [6]: 107 % of control

C/C(=N/NC(N)=O)C1CC2CCC1C2 (stereo unspecified)
T/C [20]: 98 % of control
T/C (dose: 100.0 mg/kg/injection, schedule: Q01DX009 (ip), vehicle: gum acacia): 102 % of control
T/C (dose: 100.0 mg/kg/injection, schedule: Q04DX003 (ip), vehicle: gum acacia): 93 % of control
T/C [21]: 101 % of control
T/C (dose: 200.0 mg/kg/injection, schedule: Q01DX009 (ip), vehicle: gum acacia): 94 % of control
T/C (dose: 200.0 mg/kg/injection, schedule: Q04DX003 (ip), vehicle: gum acacia): 95 % of control
T/C (dose: 400.0 mg/kg/injection, schedule: Q04DX003 (ip), vehicle: gum acacia): 90 % of control
